Laboratory results taken from the CheMixHub viscosity set.
“And” between values parts separate entries of the source, which are not always exact repeats. Equal values may be shown once.

Experiment: xn = mol fraction of the nth substance listed

CC(N)CN (configuration not stated) + O
viscosity [mPa·s], 101 kPa
Conditions | 298.15 K | 303.15 K | 308.15 K | 313.15 K | 318.15 K | 323.15 K
x1 = 0.0997 | 6.527 | 5.479 | 4.625 | 3.878 | 3.237 | –
x1 = 0.0998 | – | 3.004 | 2.529 | 2.154 | 1.855 | 1.625
x1 = 0.1997 | – | 6.596 | 5.258 | 4.287 | 3.559 | 2.977
x1 = 0.2002 | 9.458 | 7.901 | 6.605 | 5.522 | 4.611 | –
x1 = 0.2522 | – | 7.702 | 6.095 | 4.913 | 4.041 | 3.365
x1 = 0.2992 | – | 8.043 | 6.383 | 5.139 | 4.211 | 3.495
x1 = 0.2998 | 10.24 | 8.542 | 7.121 | 5.956 | 4.993 | –
x1 = 0.3412 | – | 7.793 | 6.196 | 5.033 | 4.11 | 3.452
x1 = 0.3995 | 9.546 | 7.939 | 6.633 | 5.555 | 4.676 | –
x1 = 0.4012 | – | 7.095 | 5.678 | 4.69 | 3.823 | 3.204
x1 = 0.4957 | 8.037 | 6.649 | 5.591 | 4.69 | 3.961 | –
x1 = 0.5022 | – | 5.538 | 4.504 | 3.734 | 3.14 | 2.671
x1 = 0.6011 | – | 3.921 | 3.288 | 2.792 | 2.395 | 2.08
x1 = 0.6024 | 6.005 | 4.915 | 4.178 | 3.516 | 2.983 | –
x1 = 0.6913 | – | 2.844 | 2.443 | 2.113 | 1.85 | 1.632
x1 = 0.694 | 4.35 | 3.566 | 3.067 | 2.603 | 2.23 | –
x1 = 0.7912 | – | 2.119 | 1.854 | 1.634 | 1.45 | 1.302
x1 = 0.7949 | 2.882 | 2.425 | 2.098 | 1.814 | 1.585 | –
x1 = 0.8901 | 1.975 | 1.752 | 1.508 | 1.337 | 1.199 | –
x1 = 0.8998 | – | 1.689 | 1.501 | 1.312 | 1.216 | 1.101

Cc1cccc(C)n1 + O
Conditions | viscosity
293.18 K, 101 kPa, x1 = 0.06338 | 2.838 mPa·s
295.15 K, 101 kPa, x1 = 0.0183 | 1.357 mPa·s
295.15 K, 101 kPa, x1 = 0.0403 | 1.932 mPa·s
295.15 K, 101 kPa, x1 = 0.0675 | 2.915 mPa·s
295.15 K, 101 kPa, x1 = 0.0833 | 3.276 mPa·s
295.15 K, 101 kPa, x1 = 0.144 | 4.298 mPa·s
295.15 K, 101 kPa, x1 = 0.282 | 5.153 mPa·s
295.15 K, 101 kPa, x1 = 0.402 | 4.278 mPa·s
295.15 K, 101 kPa, x1 = 0.602 | 2.687 mPa·s
296.18 K, 101 kPa, x1 = 0.06338 | 2.578 mPa·s
298.12 K, 101 kPa, x1 = 0.3006 | 4.353 mPa·s
298.15 K, 101 kPa, x1 = 0.02034 | 1.346 mPa·s
298.15 K, 101 kPa, x1 = 0.0297 | 1.553 mPa·s
298.15 K, 101 kPa, x1 = 0.05039 | 2.066 mPa·s
298.15 K, 101 kPa, x1 = 0.07682 | 2.713 mPa·s
298.15 K, 101 kPa, x1 = 0.1166 | 3.638 mPa·s
298.15 K, 101 kPa, x1 = 0.1208 | 3.916 mPa·s
298.16 K, 101 kPa, x1 = 0.5008 | 2.844 mPa·s
298.17 K, 101 kPa, x1 = 0.3981 | 3.708 mPa·s
298.18 K, 101 kPa, x1 = 0.06338 | 2.428 mPa·s
298.19 K, 101 kPa, x1 = 0.0602 | 2.361 mPa·s
298.19 K, 101 kPa, x1 = 0.7887 | 1.038 mPa·s
298.2 K, 101 kPa, x1 = 0.1001 | 3.14 mPa·s
298.2 K, 101 kPa, x1 = 0.651 | 1.812 mPa·s
298.21 K, 101 kPa, x1 = 0.0501 | 2.095 mPa·s
298.23 K, 101 kPa, x1 = 0.2004 | 4.298 mPa·s
299.18 K, 101 kPa, x1 = 0.06338 | 2.36 mPa·s
300.12 K, 101.33 kPa, x1 = 0.0182 | 1.217 mPa·s
300.18 K, 101 kPa, x1 = 0.06338 | 2.291 mPa·s
301.18 K, 101 kPa, x1 = 0.06338 | 2.243 mPa·s
302.02 K, 101 kPa, x1 = 0.0297 | 1.415 mPa·s
302.18 K, 101 kPa, x1 = 0.06338 | 2.182 mPa·s
303.02 K, 101 kPa, x1 = 0.2004 | 3.54 mPa·s
303.05 K, 101 kPa, x1 = 0.0602 | 2.172 mPa·s
303.08 K, 101 kPa, x1 = 0.1001 | 2.712 mPa·s
303.12 K, 101.33 kPa, x1 = 0.0182 | 1.132 mPa·s
303.17 K, 101 kPa, x1 = 0.0501 | 1.932 mPa·s
303.17 K, 101 kPa, x1 = 0.3006 | 3.538 mPa·s
303.18 K, 101 kPa, x1 = 0.06338 | 2.136 mPa·s
303.19 K, 101 kPa, x1 = 0.3981 | 3.072 mPa·s
303.19 K, 101 kPa, x1 = 0.5008 | 2.464 mPa·s
303.23 K, 101 kPa, x1 = 0.7887 | 0.955 mPa·s
303.26 K, 101 kPa, x1 = 0.651 | 1.593 mPa·s
304.18 K, 101 kPa, x1 = 0.06338 | 2.093 mPa·s
304.48 K, 101 kPa, x1 = 0.06338 | 2.084 mPa·s
304.78 K, 101 kPa, x1 = 0.06338 | 2.076 mPa·s
304.98 K, 101 kPa, x1 = 0.06338 | 2.071 mPa·s
305.18 K, 101 kPa, x1 = 0.06338 | 2.066 mPa·s
305.38 K, 101 kPa, x1 = 0.06338 | 2.063 mPa·s
305.58 K, 101 kPa, x1 = 0.06338 | 2.064 mPa·s
305.78 K, 101 kPa, x1 = 0.06338 | 2.065 mPa·s
305.98 K, 101 kPa, x1 = 0.06338 | 2.065 mPa·s
306.18 K, 101 kPa, x1 = 0.06338 | 2.058 mPa·s
306.28 K, 101 kPa, x1 = 0.06338 | 2.074 mPa·s
306.38 K, 101 kPa, x1 = 0.06338 | 2.083 mPa·s
306.48 K, 101 kPa, x1 = 0.06338 | 2.088 mPa·s
306.58 K, 101 kPa, x1 = 0.06338 | 2.101 mPa·s
306.68 K, 101 kPa, x1 = 0.06338 | 2.124 mPa·s
306.78 K, 101 kPa, x1 = 0.06338 | 2.141 mPa·s
306.83 K, 101 kPa, x1 = 0.06338 | 2.151 mPa·s
306.88 K, 101 kPa, x1 = 0.06338 | 2.183 mPa·s
306.9 K, 101 kPa, x1 = 0.06338 | 2.198 mPa·s
306.93 K, 101 kPa, x1 = 0.06338 | 2.22 mPa·s
306.95 K, 101 kPa, x1 = 0.06338 | 2.242 mPa·s
306.97 K, 101 kPa, x1 = 0.06338 | 2.27 mPa·s
306.98 K, 101 kPa, x1 = 0.06338 | 2.291 mPa·s
306.99 K, 101 kPa, x1 = 0.06338 | 2.316 mPa·s
307 K, 101 kPa, x1 = 0.06338 | 2.344 mPa·s and 2.36 mPa·s
307.01 K, 101 kPa, x1 = 0.06338 | 2.384 mPa·s and 2.396 mPa·s and 2.405 mPa·s
307.35 K, 101 kPa, x1 = 0.043 | 1.5 mPa·s
307.35 K, 101 kPa, x1 = 0.0974 | 1.8 mPa·s
307.65 K, 101 kPa, x1 = 0.0403 | 1.35 mPa·s
307.65 K, 101 kPa, x1 = 0.105 | 1.95 mPa·s
308.15 K, 101 kPa, x1 = 0.0349 | 1.2 mPa·s
308.15 K, 101 kPa, x1 = 0.116 | 2.2 mPa·s
308.18 K, 101 kPa, x1 = 0.5008 | 2.071 mPa·s
308.21 K, 101 kPa, x1 = 0.3981 | 2.587 mPa·s
308.23 K, 101 kPa, x1 = 0.7887 | 0.881 mPa·s
308.26 K, 101 kPa, x1 = 0.651 | 1.413 mPa·s
309.15 K, 101 kPa, x1 = 0.0288 | 1.1 mPa·s
309.15 K, 101 kPa, x1 = 0.131 | 2.57 mPa·s
311.15 K, 101 kPa, x1 = 0.0204 | 0.96 mPa·s
311.15 K, 101 kPa, x1 = 0.155 | 2.47 mPa·s
313.15 K, 101 kPa, x1 = 0.0185 | 0.88 mPa·s
313.15 K, 101 kPa, x1 = 0.172 | 2.38 mPa·s
313.25 K, 101 kPa, x1 = 0.5008 | 1.794 mPa·s
313.31 K, 101 kPa, x1 = 0.3981 | 2.196 mPa·s
313.32 K, 101 kPa, x1 = 0.651 | 1.262 mPa·s
313.34 K, 101 kPa, x1 = 0.7887 | 0.815 mPa·s
318.3 K, 101 kPa, x1 = 0.5008 | 1.571 mPa·s
318.34 K, 101 kPa, x1 = 0.3981 | 1.902 mPa·s
318.36 K, 101 kPa, x1 = 0.7887 | 0.758 mPa·s
318.37 K, 101 kPa, x1 = 0.651 | 1.134 mPa·s
319.15 K, 101 kPa, x1 = 0.017 | 0.73 mPa·s
319.15 K, 101 kPa, x1 = 0.218 | 1.81 mPa·s
323.15 K, 101 kPa, x1 = 0.013 | 0.63 mPa·s
323.15 K, 101 kPa, x1 = 0.236 | 1.7 mPa·s

CC(N)CN (configuration not stated) + OCCCCO
viscosity [mPa·s], 101.33 kPa
Conditions | 293.15 K | 298.15 K | 303.15 K | 308.15 K | 313.15 K | 318.15 K
x2 = 0.0415 | 2.17 | 1.92 | 1.66 | 1.48 | 1.3 | 1.21
x2 = 0.0837 | 2.83 | 2.5 | 2.1 | 1.86 | 1.63 | 1.54
x2 = 0.1267 | 3.76 | 3.28 | 2.72 | 2.37 | 2.07 | 1.91
x2 = 0.1705 | 5.08 | 4.37 | 3.59 | 3.08 | 2.65 | 2.44
x2 = 0.2152 | 6.86 | 5.84 | 4.71 | 4.02 | 3.41 | 3.11
x2 = 0.2606 | 8.9 | 7.88 | 6.27 | 5.26 | 4.42 | –
x2 = 0.3069 | 13.32 | 10.91 | 8.54 | 7.05 | 5.85 | –
x2 = 0.3541 | 18.39 | 14.82 | 11.39 | 9.32 | 7.62 | –
x2 = 0.4022 | 25.44 | 20.09 | 15.23 | 12.31 | 9.87 | –
x2 = 0.4513 | 34.76 | 27.12 | 20.33 | 16.17 | 13.1 | –
x2 = 0.5013 | 47.13 | 36.26 | 26.83 | 21.01 | 16.42 | –
x2 = 0.5523 | 61.72 | 47.01 | 34.44 | 26.7 | 20.75 | –
x2 = 0.6043 | 75.89 | 57.65 | 42 | 32.37 | 25.02 | –
x2 = 0.6574 | 90.68 | 69.04 | 50.16 | 38.64 | 29.82 | –
x2 = 0.7116 | 99.83 | 76.3 | 55.75 | 42.89 | 33.12 | –
x2 = 0.7669 | 106 | 81.64 | 60.1 | 46.57 | 36.08 | –
x2 = 0.8233 | 107.2 | 83.62 | 61.98 | 48.39 | 37.8 | –
x2 = 0.881 | 104.3 | 82.14 | 61.43 | 48.46 | 38.15 | –
x2 = 0.9399 | 98.79 | 78.35 | 59.29 | 47.22 | 37.43 | –
